Data as given in patent US20260262643A1, “HERBICIDAL BENZOXAZINES” (FMC CORPORATION, priority 2022, published 2026).

How the values were obtained:
wheat = assay: Test A postemergence; type: in vivo, Triticum aestivum
Summary of the method: (§1)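 Loam/sand soil; pre-em directed soil spray at planting, post-em spray at 1–2 leaf (2–10 cm). Compound in non-phytotoxic solvent + surfactant. Greenhouse 10 d; visual injury vs untreated, 0 = no effect, 100 = complete control.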

kochia [1] = assay: Test A postemergence; type: in vivo, Bassia scoparia
Summary of the method: as §1

barnyardgrass [2] = assay: Test B flooded paddy test; type: in vivo, Echinochloa crus-galli; conditions: 250 g ai/ha, Flood, 13 days, 0 to 100 scale (0 no effect, 100 complete control)
Summary of the method: (§2)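 Percent weed or crop control, judged by eye on a 0–100 scale 13 days post-treatment, reflects compound added to a 3 cm flood maintained over 2-leaf plants in the greenhouse. Missing entries are marked with a dash.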

Pigweed, Redroot [3] = assay: Test A postemergence; type: in vivo, Amaranthus retroflexus
Text: Seeds of plant species selected from barnyardgrass (Echinochloa crusgalli), blackgrass (Alopecurus myosuroides), corn (Zea mays), foxtail, giant (giant foxtail, Setaria faberi), goosegrass (Eleusine indica), kochia (Bassia scoparia), oat, wild (wild oat, Avena fatua), pigweed, palmer (palmer amaranth, palmer pigweed, Amaranthus palmeri), Pigweed, Redroot (redroot pigweed, Amaranthus retroflexus), ragweed (common ragweed, Ambrosia artemisiifolia), ryegrass, Italian (italian ryegrass, Lolium multiflorum), soybean (Glycine max), and wheat (Triticum aestivum) were planted into a blend of loam soil and sand and treated preemergence with a directed soil spray using test chemicals formulated in a non-phytotoxic solvent mixture which included a surfactant. At the same time, plants selected from these crops and weed species and also galium (catchweed bedstraw, Galium aparine) and horseweed (Erigeron canadensis) were planted in pots containing the same blend of loam soil and sand and treated with postemergence applications of test chemicals formulated in the same manner. Plants ranged in height from 2 to 10 cm and were in the one- to two-leaf stage for the postemergence treatment. Treated plants and untreated controls were maintained in a greenhouse for 10 days, after which time all treated plants were compared to untreated controls and visually evaluated for injury. Plant response ratings, summarized in Table A, are based on a 0 to 100 scale where 0 is no effect and 100 is complete control. A dash (-) response means no test result.

ducksalad = assay: Test B flooded paddy test; type: in vivo, Heteranthera limosa; conditions: 250 g ai/ha, Flood, 13 days, 0 to 100 scale (0 no effect, 100 complete control)
Summary of the method: as §2

ryegrass, Italian [4] = assay: Test A preemergence; type: in vivo, Lolium multiflorum
Summary of the method: as §1

ryegrass, Italian [5] = assay: Test A postemergence; type: in vivo, Lolium multiflorum
Summary of the method: as §1

galium = assay: Test A postemergence; type: in vivo, Galium aparine
Summary of the method: as §1

barnyardgrass [6] = assay: Test A preemergence; type: in vivo, Echinochloa crusgalli
Summary of the method: as §1

kochia [7] = assay: Test A preemergence; type: in vivo, Bassia scoparia
Summary of the method: as §1

foxtail, giant [8] = assay: Test A preemergence; type: in vivo, Setaria faberi
Summary of the method: as §1

ragweed [9] = assay: Test A preemergence; type: in vivo, Ambrosia artemisiifolia
Summary of the method: as §1

corn = assay: Test A postemergence; type: in vivo, Zea mays
Summary of the method: as §1

foxtail, giant [10] = assay: Test A postemergence; type: in vivo, Setaria faberi
Summary of the method: as §1

ragweed [11] = assay: Test A postemergence; type: in vivo, Ambrosia artemisiifolia
Summary of the method: as §1

barnyardgrass [12] = assay: Test A postemergence; type: in vivo, Echinochloa crusgalli
Summary of the method: as §1

sedge, umbrella = assay: Test B flooded paddy test; type: in vivo, Cyperus difformis; conditions: 250 g ai/ha, Flood, 13 days, 0 to 100 scale (0 no effect, 100 complete control)
Summary of the method: as §2

blackgrass = assay: Test A postemergence; type: in vivo, Alopecurus myosuroides
Summary of the method: as §1

rice = assay: Test B flooded paddy test; type: in vivo, Oryza sativa; conditions: 250 g ai/ha, Flood, 13 days, 0 to 100 scale (0 no effect, 100 complete control)
Summary of the method: as §2

Pigweed, Redroot [13] = assay: Test A preemergence; type: in vivo, Amaranthus retroflexus
Summary of the method: as §1

[14] = 1000 g ai/ha, Postemergence, 0 to 100 scale
[15] = 1000 g ai/ha, 0 to 100 scale (0 no effect, 100 complete control), 10 days
[16] = 125 g ai/ha, postemergence, 10 days, visual injury, 0 to 100 scale (0 no effect, 100 complete control)
[17] = 500 g ai/ha, Postemergence, 0 to 100 scale
[18] = 125 g ai/ha, visual injury after 10 days, 0 to 100 scale, 0 is no effect, 100 is complete control
[19] = 500 g ai/ha, 0 to 100 scale (0 no effect, 100 complete control), 10 days

## O=C(c1cccc(-n2cncn2)c1)N1CC(C2CC2)Oc2c(Cl)cccc21 (centres unmarked) [Compound 22, (8-Chloro-2-cyclopropyl-2,3-dihydro-4H-1,4-benzoxazin-4-yl)[3-(1H-1,2,4-triazol-1-yl)phenyl]methanone]
wheat; Triticum aestivum, post-emergence, 240 h, 1000 g ai/ha, Postemergence, 0 to 100 scale, read-out: Plant response rating, Wheat
  plant injury at 1000 g/ha: 60%
Kochia [1]; Bassia scoparia, post-emergence, 240 h, 1000 g ai/ha, Postemergence, 0 to 100 scale, read-out: Plant response rating, Kochia
  pest or weed control at 1000 g/ha: 70%
Barnyardgrass [2]; Echinochloa crus-galli, 312 h, read-out: Plant response rating, Barnyardgrass
  pest or weed control at 250 g/ha: 0%
Pigweed, Redroot [3]; [14]
  Plant response rating, Pigweed, Redroot: 60
ducksalad; Heteranthera limosa, 312 h, read-out: Plant response rating, Ducksalad
  pest or weed control at 250 g/ha: 0%
ryegrass, Italian [4]; Lolium multiflorum, pre-emergence, 240 h, 1000 g ai/ha, 0 to 100 scale (0 no effect, 100 complete control), 10 days, read-out: Plant response rating, Ryegrass, Italian
  pest or weed control at 1000 g/ha: 90%
ryegrass, Italian [5]; Lolium multiflorum, post-emergence, 240 h, 1000 g ai/ha, Postemergence, 0 to 100 scale, read-out: Plant response rating, Ryegrass, Italian
  pest or weed control at 1000 g/ha: 60%
galium; Galium, post-emergence, 240 h, 1000 g ai/ha, Postemergence, 0 to 100 scale, read-out: Plant response rating, Galium
  pest or weed control at 1000 g/ha: 90%
Barnyardgrass [6]; [15]
  Plant response rating, Barnyardgrass: 90
Kochia [7]; Bassia scoparia, pre-emergence, 240 h, 1000 g ai/ha, 0 to 100 scale (0 no effect, 100 complete control), 10 days, read-out: Plant response rating, Kochia
  pest or weed control at 1000 g/ha: 50%
foxtail, giant [8]; Setaria faberi, pre-emergence, 240 h, 1000 g ai/ha, 0 to 100 scale (0 no effect, 100 complete control), 10 days, read-out: Plant response rating, Foxtail, Giant
  pest or weed control at 1000 g/ha: 90%
Ragweed [9]; Ambrosia artemisiifolia, pre-emergence, 240 h, 1000 g ai/ha, 0 to 100 scale (0 no effect, 100 complete control), 10 days, read-out: Plant response rating, Ragweed
  pest or weed control at 1000 g/ha: 20%
corn; Zea mays, post-emergence, 240 h, 1000 g ai/ha, Postemergence, 0 to 100 scale
  Corn plant response rating (crop injury, 0 = no effect, 100 = complete kill) at 1000 g/ha: 70%
foxtail, giant [10]; Setaria faberi, post-emergence, 240 h, 1000 g ai/ha, Postemergence, 0 to 100 scale, read-out: Plant response rating, Foxtail, Giant
  pest or weed control at 1000 g/ha: 80%
Ragweed [11]; Ambrosia artemisiifolia, post-emergence, 240 h, 1000 g ai/ha, Postemergence, 0 to 100 scale, read-out: Plant response rating, Ragweed
  pest or weed control at 1000 g/ha: 50%
Barnyardgrass [12]; [14]
  Plant response rating, Barnyardgrass: 50
sedge, umbrella; Cyperus difformis, 312 h, read-out: Plant response rating, Sedge, Umbrella
  pest or weed control at 250 g/ha: 0%
blackgrass; Alopecurus myosuroides, post-emergence, 240 h, 1000 g ai/ha, Postemergence, 0 to 100 scale, read-out: Plant response rating, Blackgrass
  pest or weed control at 1000 g/ha: 80%
rice; Oryza sativa, 312 h, read-out: Plant response rating, Rice
  plant injury at 250 g/ha: 0%
Pigweed, Redroot [13]; [15]
  Plant response rating, Pigweed, Redroot: 60

## CC1CN(C(=O)c2ccnc(-n3cncn3)c2)c2ccccc2O1 (centres unmarked) [Compound 19]
wheat; [14]
  Plant response rating, Wheat: 70
Kochia [1]; [14]
  Plant response rating, Kochia: 30
Barnyardgrass [2]
  Plant response rating, Barnyardgrass: 0
Pigweed, Redroot [3]; [14]
  Plant response rating, Pigweed, Redroot: 40
ducksalad
  Plant response rating, Ducksalad: 0
ryegrass, Italian [4]; [15]
  Plant response rating, Ryegrass, Italian: 80
ryegrass, Italian [5]; [14]
  Plant response rating, Ryegrass, Italian: 60
galium; [14]
  Plant response rating, Galium: 90
Barnyardgrass [6]; [15]
  Plant response rating, Barnyardgrass: 90
Kochia [7]; [15]
  Plant response rating, Kochia: 60
foxtail, giant [8]; [15]
  Plant response rating, Foxtail, Giant: 100
Ragweed [9]; [15]
  Plant response rating, Ragweed: 80
corn; [14]
  Plant response rating, Corn: 50
foxtail, giant [10]; [14]
  Plant response rating, Foxtail, Giant: 60
Ragweed [11]; [14]
  Plant response rating, Ragweed: 0
Barnyardgrass [12]; [14]
  Plant response rating, Barnyardgrass: 80
sedge, umbrella
  Plant response rating, Sedge, Umbrella: 0
blackgrass; [14]
  Plant response rating, Blackgrass: 70
rice
  Plant response rating, Rice: 0
Pigweed, Redroot [13]; [15]
  Plant response rating, Pigweed, Redroot: 0

## CC1CN(C(=O)c2cccc(-n3cncn3)c2)c2cccc(F)c2O1 (centres unmarked) [Compound 20]
wheat; [14]
  Plant response rating, Wheat: 70
Kochia [1]; [14]
  Plant response rating, Kochia: 30
Barnyardgrass [2]
  Plant response rating, Barnyardgrass: 0
Pigweed, Redroot [3]; [14]
  Plant response rating, Pigweed, Redroot: 30
ducksalad
  Plant response rating, Ducksalad: 85
ryegrass, Italian [4]; [15]
  Plant response rating, Ryegrass, Italian: 100
ryegrass, Italian [5]; [14]
  Plant response rating, Ryegrass, Italian: 70
galium; [14]
  Plant response rating, Galium: 90
Barnyardgrass [6]; [15]
  Plant response rating, Barnyardgrass: 90
Kochia [7]; [15]
  Plant response rating, Kochia: 80
foxtail, giant [8]; [15]
  Plant response rating, Foxtail, Giant: 100
Ragweed [9]; [15]
  Plant response rating, Ragweed: 80
corn; [14]
  Plant response rating, Corn: 60
foxtail, giant [10]; [14]
  Plant response rating, Foxtail, Giant: 90
Ragweed [11]; [14]
  Plant response rating, Ragweed: 30
Barnyardgrass [12]; [14]
  Plant response rating, Barnyardgrass: 90
sedge, umbrella
  Plant response rating, Sedge, Umbrella: 35
blackgrass; [14]
  Plant response rating, Blackgrass: 70
rice
  Plant response rating, Rice: 0
Pigweed, Redroot [13]; [15]
  Plant response rating, Pigweed, Redroot: 80

## CCC1CN(C(=O)c2cncc(-n3cncn3)c2)c2cccc(Cl)c2O1 (racemic) [Compound 6]
wheat; [16]
  Plant response rating, Wheat: 0
wheat; [17]
  Plant response rating, Wheat: 0
Kochia [1]; [16]
  Plant response rating, Kochia: 0
Kochia [1]; [17]
  Plant response rating, Kochia: 0
Barnyardgrass [2]
  Plant response rating, Barnyardgrass: 0
Pigweed, Redroot [3]; [16]
  Plant response rating, Pigweed, Redroot: 0
Pigweed, Redroot [3]; [17]
  Plant response rating, Pigweed, Redroot: 30
ducksalad
  Plant response rating, Ducksalad: 0
ryegrass, Italian [4]; [18]
  Plant response rating, Ryegrass, Italian: 20
ryegrass, Italian [4]; [19]
  Plant response rating, Ryegrass, Italian: 50
ryegrass, Italian [5]; [16]
  Plant response rating, Ryegrass, Italian: 50
ryegrass, Italian [5]; [17]
  Plant response rating, Ryegrass, Italian: 40
galium; [16]
  Plant response rating, Galium: 0
galium; [17]
  Plant response rating, Galium: 30
Barnyardgrass [6]; [18]
  Plant response rating, Barnyardgrass: 0
Barnyardgrass [6]; [19]
  Plant response rating, Barnyardgrass: 0
Kochia [7]; [18]
  Plant response rating, Kochia: 0
Kochia [7]; [19]
  Plant response rating, Kochia: 0
foxtail, giant [8]; [18]
  Plant response rating, Foxtail, Giant: 0
foxtail, giant [8]; [19]
  Plant response rating, Foxtail, Giant: 60
Ragweed [9]; [18]
  Plant response rating, Ragweed: 0
Ragweed [9]; [19]
  Plant response rating, Ragweed: 30
corn; [16]
  Plant response rating, Corn: 0
corn; [17]
  Plant response rating, Corn: 0
foxtail, giant [10]; [16]
  Plant response rating, Foxtail, Giant: 0
foxtail, giant [10]; [17]
  Plant response rating, Foxtail, Giant: 10
Ragweed [11]; [16]
  Plant response rating, Ragweed: 0
Ragweed [11]; [17]
  Plant response rating, Ragweed: 0
Barnyardgrass [12]; [16]
  Plant response rating, Barnyardgrass: 0
Barnyardgrass [12]; [17]
  Plant response rating, Barnyardgrass: 10
sedge, umbrella
  Plant response rating, Sedge, Umbrella: 0
blackgrass; [16]
  Plant response rating, Blackgrass: 0
blackgrass; [17]
  Plant response rating, Blackgrass: 0
rice
  Plant response rating, Rice: 0
Pigweed, Redroot [13]; [18]
  Plant response rating, Pigweed, Redroot: 0
Pigweed, Redroot [13]; [19]
  Plant response rating, Pigweed, Redroot: 20

## C[C@H]1CN(C(=O)c2cccc(-n3cnnn3)c2)c2cccc(Cl)c2O1 [Compound 115]
wheat; [14]
  Plant response rating, Wheat: 50
Kochia [1]; [14]
  Plant response rating, Kochia: 0
Barnyardgrass [2]
  Plant response rating, Barnyardgrass: 0
Pigweed, Redroot [3]; [14]
  Plant response rating, Pigweed, Redroot: 30
ducksalad
  Plant response rating, Ducksalad: 0
ryegrass, Italian [4]; [15]
  Plant response rating, Ryegrass, Italian: 90
ryegrass, Italian [5]; [14]
  Plant response rating, Ryegrass, Italian: 60
galium; [14]
  Plant response rating, Galium: 70
Barnyardgrass [6]; [15]
  Plant response rating, Barnyardgrass: 70
Kochia [7]; [15]
  Plant response rating, Kochia: 40
foxtail, giant [8]; [15]
  Plant response rating, Foxtail, Giant: 90
Ragweed [9]; [15]
  Plant response rating, Ragweed: 30
corn; [14]
  Plant response rating, Corn: 40
foxtail, giant [10]; [14]
  Plant response rating, Foxtail, Giant: 40
Ragweed [11]; [14]
  Plant response rating, Ragweed: 0
Barnyardgrass [12]; [14]
  Plant response rating, Barnyardgrass: 50
sedge, umbrella
  Plant response rating, Sedge, Umbrella: 0
blackgrass; [14]
  Plant response rating, Blackgrass: 50
rice
  Plant response rating, Rice: 0
Pigweed, Redroot [13]; [15]
  Plant response rating, Pigweed, Redroot: 80
